Reference: patent US8575158B2, “1-phenyl-substituted heterocyclyl derivatives and their use as prostaglandin D2 receptor modulators” (Actelion Pharmaceuticals Ltd., priority 2010, dated 2013)

Biological target: T1, hCRTH2 receptor (Homo sapiens, UniProt Q9Y5Y4)
T1 construct: expressed in transfected cells; host or cells: HEK293
T1 sequence (Q9Y5Y4 1-395): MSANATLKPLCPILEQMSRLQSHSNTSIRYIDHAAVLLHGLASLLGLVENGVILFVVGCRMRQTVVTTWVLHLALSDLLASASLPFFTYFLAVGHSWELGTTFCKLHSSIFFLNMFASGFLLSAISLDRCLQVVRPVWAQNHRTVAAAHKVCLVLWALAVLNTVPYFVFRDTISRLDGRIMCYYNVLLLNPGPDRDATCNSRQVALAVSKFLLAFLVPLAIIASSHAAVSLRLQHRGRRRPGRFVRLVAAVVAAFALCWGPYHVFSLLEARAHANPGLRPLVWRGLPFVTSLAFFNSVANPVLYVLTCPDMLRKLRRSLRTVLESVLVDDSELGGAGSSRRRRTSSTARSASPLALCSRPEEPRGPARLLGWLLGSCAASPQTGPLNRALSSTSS
Assay: Radioligand displacement assay (3H-PGD2) on hCRTH2 receptor membranes
Format: binding
Conditions: antagonistic activity; 3H-PGD2 displacement on HEK293-hCRTH2 membrane fragments

IC50 | SMILES
41.2 nM | Cc1cccc(CCCC(=O)N2CCc3ccccc3C2c2cc(Cl)ccc2OCC(=O)O)c1 (racemic) [Example 110, (±)-{4-Chloro-2-[2-(4-m-tolyl-butyryl)-1,2,3,4-tetrahydro-isoquinolin-1-yl]-phenoxy}-acetic acid]
45 nM | Cc1ccccc1CCCC(=O)N1CCc2ccccc2C1c1cc(Cl)ccc1OCC(=O)O (racemic) [Example 111, (±)-{4-Chloro-2-[2-(4-o-tolyl-butyryl)-1,2,3,4-tetrahydro-isoquinolin-1-yl]-phenoxy}-acetic acid]
23.4 nM | O=C(O)COc1ccc(Cl)cc1C1c2ccccc2CCN1C(=O)CCCc1cccc(Cl)c1 (racemic) [Example 112, (±)-(4-Chloro-2-{2-[4-(3-chloro-phenyl)-butyryl]-1,2,3,4-tetrahydro-isoquinolin-1-yl}-phenoxy)-acetic acid]
25.5 nM | O=C(O)COc1ccc(Cl)cc1C1c2ccccc2CCN1C(=O)CCCc1ccccc1Cl (racemic) [Example 113, (±)-(4-Chloro-2-{2-[4-(2-chloro-phenyl)-butyryl]-1,2,3,4-tetrahydro-isoquinolin-1-yl}-phenoxy)-acetic acid]
34.5 nM | COc1cccc(CCCC(=O)N2CCc3ccccc3C2c2cc(Cl)ccc2OCC(=O)O)c1 (racemic) [Example 114, (±)-(4-Chloro-2-{2-[4-(3-methoxy-phenyl)-butyryl]-1,2,3,4-tetrahydro-isoquinolin-1-yl}-phenoxy)-acetic acid]
27 nM | O=C(O)COc1ccc(Cl)cc1C1c2ccccc2CCN1C(=O)CCCc1ccccc1F (racemic) [Example 115, (±)-(4-Chloro-2-{2-[4-(2-fluoro-phenyl)-butyryl]-1,2,3,4-tetrahydro-isoquinolin-1-yl}-phenoxy)-acetic acid]
5.42 nM | O=C(O)COc1ccc(Cl)cc1C1c2ccccc2CCN1C(=O)[C@@H]1C[C@H]1c1ccccc1 (mixture of isomers) [Example 116, (±)-{4-Chloro-2-[2-(trans-2-phenyl-cyclopropanecarbonyl)-1,2,3,4-tetrahydro-isoquinolin-1-yl]-phenoxy}-acetic acid]
95.4 nM | Cc1ccccc1CCC(=O)N1CCc2c(F)cccc2C1c1cc(Cl)ccc1OCC(=O)O (racemic) [Example 118, (±)-{4-Chloro-2-[5-fluoro-2-(3-o-tolyl-propionyl)-1,2,3,4-tetrahydro-isoquinolin-1-yl]-phenoxy}-acetic acid]
30.9 nM | O=C(O)COc1ccc(Cl)cc1C1c2cccc(F)c2CCN1C(=O)COCc1ccccc1 (racemic) [Example 119, (±)-{2-[2-(2-Benzyloxy-acetyl)-5-fluoro-1,2,3,4-tetrahydro-isoquinolin-1-yl]-4-chloro-phenoxy}-acetic acid]
33.3 nM | O=C(O)COc1ccc(Cl)cc1C1c2cccc(F)c2CCN1C(=O)COCc1ccccc1Cl (racemic) [Example 120, (±)-(4-Chloro-2-{2-[2-(2-chloro-benzyloxy)-acetyl]-5-fluoro-1,2,3,4-tetrahydro-isoquinolin-1-yl}-phenoxy)-acetic acid]
52.3 nM | O=C(O)COc1ccc(Cl)cc1C1c2cccc(F)c2CCN1C(=O)CCCc1ccccc1 (racemic) [Example 121, (±)-{4-Chloro-2-[5-fluoro-2-(4-phenyl-butyryl)-1,2,3,4-tetrahydro-isoquinolin-1-yl]-phenoxy}-acetic acid]
196 nM | O=C(O)COc1ccc(Cl)cc1C1c2cccc(F)c2CCN1C(=O)C#Cc1ccccc1 (racemic) [Example 122, (±)-{4-Chloro-2-[5-fluoro-2-(3-phenyl-propynoyl)-1,2,3,4-tetrahydro-isoquinolin-1-yl]-phenoxy}-acetic acid]
152 nM | O=C(O)COc1ccc(F)cc1C1c2ccccc2CCN1C(=O)CCc1ccccc1 (racemic) [Example 123, (±)-{4-Fluoro-2-[2-(3-phenyl-propionyl)-1,2,3,4-tetrahydro-isoquinolin-1-yl]-phenoxy}-acetic acid]
175 nM | O=C(O)COc1ccc(F)cc1C1c2ccccc2CCN1C(=O)COc1ccccc1 (racemic) [Example 125, (±)-{4-Fluoro-2-[2-(2-phenoxy-acetyl)-1,2,3,4-tetrahydro-isoquinolin-1-yl]-phenoxy}-acetic acid]
20 nM | O=C(O)COc1ccc(F)cc1C1c2ccccc2CCN1C(=O)COCc1ccccc1 (racemic) [Example 126, (±)-{2-[2-(2-Benzyloxy-acetyl)-1,2,3,4-tetrahydro-isoquinolin-1-yl]-4-fluoro-phenoxy}-acetic acid]
29 nM | O=C(O)COc1ccc(F)cc1C1c2ccccc2CCN1C(=O)CCCc1ccccc1 (racemic) [Example 127, (±)-{4-Fluoro-2-[2-(4-phenyl-butyryl)-1,2,3,4-tetrahydro-isoquinolin-1-yl]-phenoxy}-acetic acid]
69 nM | COc1ccccc1CCC(=O)N1CCc2ccccc2C1c1cc(F)ccc1OCC(=O)O (racemic) [Example 128, (±)-(4-Fluoro-2-{2-[3-(2-methoxy-phenyl)-propionyl]-1,2,3,4-tetrahydro-isoquinolin-1-yl}-phenoxy)-acetic acid]
280 nM | COc1cccc(CCC(=O)N2CCc3ccccc3C2c2cc(F)ccc2OCC(=O)O)c1 (racemic) [Example 129, (±)-(4-Fluoro-2-{2-[3-(3-methoxy-phenyl)-propionyl]-1,2,3,4-tetrahydro-isoquinolin-1-yl}-phenoxy)-acetic acid]
270 nM | COc1ccc(CCC(=O)N2CCc3ccccc3C2c2cc(F)ccc2OCC(=O)O)cc1 (racemic) [Example 130, (±)-(4-Fluoro-2-{2-[3-(4-methoxy-phenyl)-propionyl]-1,2,3,4-tetrahydro-isoquinolin-1-yl}-phenoxy)-acetic acid]
48 nM | O=C(O)COc1ccc(F)cc1C1c2ccccc2CCN1C(=O)CCc1ccccc1Cl (racemic) [Example 131, (±)-(2-{2-[3-(2-Chloro-phenyl)-propionyl]-1,2,3,4-tetrahydro-isoquinolin-1-yl}-4-fluoro-phenoxy)-acetic acid]
86 nM | O=C(O)COc1ccc(F)cc1C1c2ccccc2CCN1C(=O)CCc1cccc(Cl)c1 (racemic) [Example 132, (±)-(2-{2-[3-(3-Chloro-phenyl)-propionyl]-1,2,3,4-tetrahydro-isoquinolin-1-yl}-4-fluoro-phenoxy)-acetic acid]
126 nM | O=C(O)COc1ccc(F)cc1C1c2ccccc2CCN1C(=O)CCc1ccc(Cl)cc1 (racemic) [Example 133, (±)-(2-{2-[3-(4-Chloro-phenyl)-propionyl]-1,2,3,4-tetrahydro-isoquinolin-1-yl}-4-fluoro-phenoxy)-acetic acid]
31 nM | Cc1ccccc1CCC(=O)N1CCc2ccccc2C1c1cc(F)ccc1OCC(=O)O (racemic) [Example 134, (±)-{4-Fluoro-2-[2-(3-o-tolyl-propionyl)-1,2,3,4-tetrahydro-isoquinolin-1-yl]-phenoxy}-acetic acid]

SMILES | IC50
O=C(O)COc1ccc(F)cc1C1c2ccccc2CCN1C(=O)Cc1ccccc1 (racemic) [Example 124, (±)-[4-Fluoro-2-(2-phenylacetyl-1,2,3,4-tetrahydro-isoquinolin-1-yl)-phenoxy]-acetic acid] | 417 nM
